These results are taken from PMC9145754, “Novel Soloxolone Amides as Potent Anti-Glioblastoma Candidates: Design, Synthesis, In Silico Analysis and Biological Activities In Vitro and In Vivo” (Pharmaceuticals, 2022).

The IC50 is the concentration that gives 50% inhibition.

One data set has as its system Neuro2a cells. Description: MTT cytotoxicity assay, Neuro2a. The format is cell-based, murine. The settings on record: Mus musculus, N2a, 24 h, read-out: IC50, Neuroblastoma, Neuro2a. The protocol: (§1) To evaluate the antitumor activity of the synthesized soloxolone amides in brain tumor cells, the cytotoxicity of compounds 4–12, predicted as BBB-permeable (Figure 3), was further analyzed in human glioblastoma U87 and U118 cells, as well as human neuroblastoma KELLY and murine neuroblastoma Neuro2a cells.
(§2) The cells in the exponential growth phase were seeded in quadruplicate in 96-well plates at a density of 1 × 10^4 cells/well for HeLa, U87, U118, KELLY and Neuro2a cells; 1.5 × 10^4 cells/well for HuTu-80 cells; 2 × 10^4 cells/well for B16 cells; and 7 × 10^3 cells/well for hFF3 fibroblasts. Cells were incubated under standard conditions overnight followed by their treatment with the investigated compounds (1–20 µM) for 24 h. Then, 10 µL of MTT solution was added to the cells to a final concentration of 0.5 mg/mL and plates were placed under standard conditions for 3 h followed by an aspiration of MTT-containing medium and a dissolution of formazan crystals with 100 µL of DMSO. The absorbance of each well was read at test and reference wavelengths of 570 and 620 nm, respectively, on a Multiscan RC plate reader (Thermo LabSystems, Helsinki, Finland).

Data set [1] is described as follows: Brain accumulation of 12 by HPLC–MS/MS. The class given is in vivo, Balb/C nude mice. The settings on record: seven injections. The protocol:
(seven injections were performed in total) and brain tissue was collected 48 h after the last injection of 12 followed by a high-performance liquid chromatography–tandem mass spectrometry (HPLC–MS/MS) analysis of the obtained samples (Figure 3D). This treatment regimen was chosen due to its common usage in the evaluation of antitumor activity of various low-molecular weight compounds in xenograft murine models. […] Before the HPLC–MS/MS analysis, chromatographic conditions and mass spectrometer parameters for detecting both semisynthetic triterpenoid 12 and the internal standard in the multiple reaction monitoring (MRM) mode were optimized. […]
To estimate the content of 12 in mouse brain tissue, a set of calibrators was prepared followed by their preparation protocol. The obtained samples were analyzed using the developed HPLC–MS/MS method and a calibration curve was built over the range of concentrations of 10–1000 ng/g. […] The validation of the method for quantification of 12 in mouse brain tissue and investigation of its pharmacokinetics will be the objectives of our next study. […]
To prepare calibrators, mouse brain tissue samples taken from three healthy untreated animals were pooled and homogenized as described above. […] The obtained supernatants were transferred into vial inserts and analyzed. To quantify 12 in experimental animal brain tissue, a sample weighing c.a. […]

Another data set deals with HeLa cells. The data set can be described thus: MTT cytotoxicity assay, HeLa. The format is cell-based. The note with it: Homo sapiens, 24 h, read-out: IC50, Cervix, HeLa. The protocol:
(§3) In the first step of the study, we analyzed the cytotoxicity of novel soloxolone derivatives 1–12 in a panel of tumor cells, including human cervical carcinoma HeLa, human duodenal carcinoma HuTu-80 and murine melanoma B16 cells, as well as human non-transformed hFF3 foreskin fibroblasts. The cells were treated with derivatives for 24 h and cell viability was evaluated by 3-(4,5-dimethylthiazol-2-yl)-2,5-diphenyltetrazolium bromide (MTT) assay. SM was used as the reference compound.
as §2
For orientation: Tetrazolium assays rely on reduction of a dye to a coloured formazan, in cell work by metabolically active cells.

In data set [2] the test system is hFF3 foreskin fibroblasts. The data set can be described thus: MTT cytotoxicity assay, hFF3 fibroblasts. The format is cell-based, human. The settings on record: Homo sapiens, HFF-3, 24 h. The protocol:
as §3, §2

A further data set concerns U87 cells. Description: Cytotoxicity of 12 with N-acetyl-L-cysteine (MTT). The settings on record: U87, 12 at 4 µM with NAC, 24 h. The format is cell-based. The protocol: To check the ability of 12 to influence ROS production, U87 cells treated with 12 (4 µM) for 24 h were stained with dichlorodihydrofluorescein diacetate (DCFDA) and analyzed by flow cytometry. […] Since ROS play an important role in the regulation of cell death, we further examined whether ROS production mediated the cytotoxicity of 12 with respect to glioblastoma cells.
In order to understand whether ROS play a crucial role in compound 12-induced cell death, U87 cells were plated in quadruplicate in 96-well plates at a density of 1 × 10^4 cells/well and incubated in the presence of 12 at 4 µM and N-Acetyl-L-cysteine (NAC) at […] for 24 h under standard conditions. Then, cell viability was measured using an MTT test.

The next data set deals with brain tumor cells. The data set can be described thus: MTT cytotoxicity, values summarised over brain tumor cells. The class given is cell-based. The note with it: range over U87, U118, KELLY, Neuro2a; read-out: IC50 against brain malignant cells. The protocol:
as §1, §2

In the next data set the test system is U118 cells. The data set can be described thus: MTT cytotoxicity assay, U118. The format is cell-based. The settings on record: Homo sapiens, 24 h, read-out: IC50, Glioblastoma, U118. The protocol: as §1, §2

Consider `CC1(C)C(=O)C(C#N)=C[C@]2(C)C3=CC(=O)[C@@H]4[C@@H]5C[C@@](C)(C(=O)NCCc6c[nH]c7ccccc67)CC[C@]5(C)CC[C@@]4(C)[C@]3(C)CC[C@@H]12` [compound 12], for which the IC50 in the data set with Neuro2a cells is 1600 ± 100 nM; in the data set with HeLa cells, 1500 ± 100 nM; in data set [2], 1400 ± 200 nM; in the data set on brain tumor cells, 1600 to 1900 nM; in the data set on U118 cells, 1900 ± 200 nM. In addition, the “concentration of 12 in brain tissue of tumor-bearing mice” value in data set [1] (U87 tumor-bearing nude mice, 20 mg/kg i.p.) was 118 ng/g. The “concentration of 12 in brain tissue” value in data set [1] (nude mice, 50 mg/kg i.p., thrice a week, 48 h after last injection) is 490 ng/g. Further, the “effect of NAC on cytotoxic effect of 12” value in the data set on U87 cells is reported as “complete abrogation of the cytotoxic effect”.
